{"source": "patent US20230066946A1", "about": "“1,5-DIPHENYLPYRAZOLYL-3-OXYALKYL ACIDS AND 1-PHENYL-5-THIENYLPYRAZOLYL-3-OXYALKYL ACIDS AND THE USE THEREOF FOR CONTROL OF UNWANTED PLANT GROWTH” (Bayer Aktiengesellschaft, priority 2019, published 2023)", "key": {"ALOMY [1]": {"test_system": "ALOMY", "test": "Pre-emergence herbicidal action against ALOMY", "assay_type": "in vivo, Alopecurus myosuroides", "settings": "scored visually after about 3 weeks vs untreated controls, 100% = plants have died, 0% = like control plants", "in_short": "(§1)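 Pre-emergence, sandy loam, pots doubly sown. WP/EC formulations + 0.5% additive, 600 L/ha water, sprayed on soil surface; 1280 or 320 g/ha. Greenhouse ~3 wk; visual % effect vs untreated.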"}, "ECHCG": {"test_system": "ECHCG", "test": "Pre-emergence herbicidal action against ECHCG", "assay_type": "in vivo, Echinochloa crus-galli", "settings": "scored visually after about 3 weeks vs untreated controls, 100% = plants have died, 0% = like control plants", "in_short": "as §1"}, "SETVI": {"test_system": "SETVI", "test": "Pre-emergence herbicidal action against SETVI", "assay_type": "in vivo, Setaria viridis", "settings": "1280 g/ha, scored visually after about 3 weeks vs untreated controls", "in_short": "as §1"}, "AMARE [2]": {"test_system": "AMARE", "test": "Pre-emergence herbicidal action against AMARE", "assay_type": "in vivo, Amaranthus retroflexus", "settings": "scored visually after about 3 weeks vs untreated controls", "in_short": "as §1"}, "MATIN [3]": {"test_system": "MATIN", "test": "Pre-emergence herbicidal action against MATIN", "assay_type": "in vivo, Matricaria inodora", "settings": "1280 g/ha, scored visually after about 3 weeks vs untreated controls", "in_short": "as §1"}, "AVEFA [4]": {"test_system": "AVEFA", "test": "Pre-emergence herbicidal action against AVEFA", "assay_type": "in vivo, Avena fatua", "settings": "scored visually after about 3 weeks vs untreated controls, 100% = plants have died, 0% = like control plants", "source_text": "(§2) Seeds of mono- and dicotyledonous weed plants are placed in plastic pots in sandy loam soil (doubly sown with one species each of mono- or dicotyledonous weed plants per pot) and covered with soil. The compounds of the invention, formulated in the form of wettable powders (WP) or as emulsion concentrates (EC), are then applied onto the surface of the covering soil as aqueous suspension or emulsion with addition of 0.5% additive at a water application rate equivalent to 600 litres per hectare. After the treatment, the pots are placed in a greenhouse and kept under good growth conditions for the trial plants. After about 3 weeks, the effect of the preparations is scored visually in comparison with untreated controls as percentages. For example, 100% activity=the plants have died, 0% activity=like control plants. [table] Tables 4.1-4.15 below show the effects of selected compounds of the general formula (I) according to Tables 1 to 3 on various harmful plants at an application rate corresponding to 1280 or 320 g/ha, which have been obtained by the aforementioned experimental method."}, "PHBPU [5]": {"test_system": "PHBPU", "test": "Pre-emergence herbicidal action against PHBPU", "assay_type": "in vivo, Pharbitis purpurea", "settings": "1280 g/ha, scored visually after about 3 weeks vs untreated controls", "source_text": "as §2"}, "POLCO [6]": {"test_system": "POLCO", "test": "Pre-emergence herbicidal action against POLCO", "assay_type": "in vivo, Polygonum convolvulus", "settings": "320 g/ha, scored visually after about 3 weeks vs untreated controls", "in_short": "as §1"}, "STEME [7]": {"test_system": "STEME", "test": "Pre-emergence herbicidal action against STEME", "assay_type": "in vivo, Stellaria media", "settings": "scored visually after about 3 weeks vs untreated controls", "in_short": "as §1"}, "VIOTR": {"test_system": "VIOTR", "test": "Pre-emergence herbicidal action against VIOTR", "assay_type": "in vivo, Viola tricolor", "settings": "1280 g/ha, scored visually after about 3 weeks vs untreated controls", "in_short": "as §1"}, "VERPE [8]": {"test_system": "VERPE", "test": "Pre-emergence herbicidal action against VERPE", "assay_type": "in vivo, Veronica persica", "settings": "320 g/ha, scored visually after about 3 weeks vs untreated controls", "in_short": "as §1"}, "ALOMY [9]": {"test_system": "ALOMY", "test": "Post-emergence herbicidal action against ALOMY", "assay_type": "in vivo, Alopecurus myosuroides", "settings": "1280 g/ha, post-emergence at one-leaf stage, rated visually after about 3 weeks vs untreated controls", "in_short": "(§3)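 Visual % damage (100% = dead, 0% = like untreated control) was scored about 3 weeks after foliar spraying of one-leaf-stage plants grown in sandy loam. Doses were 1280 or 320 g/ha, applied as aqueous WP/EC preparations with 0.5% additive in 600 litres per hectare water.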"}, "AVEFA [10]": {"test_system": "AVEFA", "test": "Post-emergence herbicidal action against AVEFA", "assay_type": "in vivo, Avena fatua", "settings": "1280 g/ha, post-emergence at one-leaf stage, rated visually after about 3 weeks vs untreated controls", "method": "(§4) [table] Seeds of mono- and dicotyledonous weed plants are placed in plastic pots in sandy loam soil (twin sowing with one species each of mono- or dicotyledonous weed plants per pot), covered with soil and cultivated in a greenhouse under controlled growth conditions. 2 to 3 weeks after sowing, the test plants are treated at the one-leaf stage. The compounds of the invention, formulated in the form of wettable powders (WP) or as emulsion concentrates (EC), are applied to the green parts of the plants as aqueous suspension or emulsion with addition of 0.5% additive at a water application rate equivalent to 600 litres per hectare. After the test plants have been kept in the greenhouse under optimum growth conditions for about 3 weeks, the activity of the preparations is rated visually in comparison to untreated controls. For example, 100% activity=the plants have died, 0% activity=like control plants. Tables 5.1-5.16 below show the effects of selected compounds of the general formula (I) according to Tables 1 to 3 on various harmful plants at an application rate corresponding to 1280 or 320 g/ha, which have been obtained by the aforementioned experimental method."}, "LOLRI": {"test_system": "LOLRI", "test": "Post-emergence herbicidal action against LOLRI", "assay_type": "in vivo, Lolium rigidum", "settings": "1280 g/ha, post-emergence at one-leaf stage, rated visually after about 3 weeks vs untreated controls", "method": "as §4"}, "AMARE [11]": {"test_system": "AMARE", "test": "Post-emergence herbicidal action against AMARE", "assay_type": "in vivo, Amaranthus retroflexus", "settings": "visual rating about 3 weeks after treatment", "in_short": "as §3"}, "MATIN [12]": {"test_system": "MATIN", "test": "Post-emergence herbicidal action against MATIN", "assay_type": "in vivo, Matricaria inodora", "settings": "visual rating about 3 weeks after treatment", "in_short": "as §3"}, "PHBPU [13]": {"test_system": "PHBPU", "test": "Post-emergence herbicidal action against PHBPU", "assay_type": "in vivo, Pharbitis purpurea", "settings": "320 g/ha, visual rating about 3 weeks after treatment", "in_short": "as §3"}, "POLCO [14]": {"test_system": "POLCO", "test": "Post-emergence herbicidal action against POLCO", "assay_type": "in vivo, Polygonum convolvulus", "settings": "320 g/ha, visual rating about 3 weeks after treatment", "in_short": "as §3"}, "STEME [15]": {"test_system": "STEME", "test": "Post-emergence herbicidal action against STEME", "assay_type": "in vivo, Stellaria media", "settings": "visual rating about 3 weeks after treatment", "in_short": "as §3"}, "VERPE [16]": {"test_system": "VERPE", "test": "Post-emergence herbicidal action against VERPE", "assay_type": "in vivo, Veronica persica", "settings": "320 g/ha, visual rating about 3 weeks after treatment", "in_short": "as §3"}, "HORMU": {"test_system": "HORMU", "test": "Post-emergence herbicidal action against HORMU", "assay_type": "in vivo, Hordeum murinum", "settings": "320 g/ha, visual rating about 3 weeks after treatment", "in_short": "as §3"}, "harmful plants": {"test_system": "harmful plants", "test": "Pre-emergence herbicidal action, summary of Tables 4.1-4.15", "assay_type": "in vivo", "settings": "result in words", "in_short": "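Percent herbicidal action (100% = plants dead, 0% = like controls) was assessed visually about 3 weeks after treatment. Application rates of 1280 or 320 g/ha were applied to the covering soil of freshly sown sandy-loam pots, in 600 l/ha water with 0.5% additive, before emergence.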"}}, "note": "Values joined by “and” are separate entries in the source; they are usually repeats but may differ in a detail not shown here. Equal values may be shown once.", "data": [{"smiles": "O=C(O)COc1nn(-c2ccccc2)c(-c2ccc(F)cc2)c1Br", "note": "[I-057]", "values": [{"measurement": "Pre-emergence action at 1280 g/ha against ALOMY in %", "setting": "ALOMY [1]", "result": 90, "unit": "%"}, {"measurement": "Pre-emergence action at 1280 g/ha against ECHCG in %", "setting": "ECHCG", "result": 80, "unit": "%"}, {"measurement": "Pre-emergence action against SETVI in %", "setting": "SETVI", "result": 90, "unit": "%"}, {"measurement": "Pre-emergence action at 320 g/ha against AMARE in %", "setting": "AMARE [2]; 320 g/ha, 100% = plants have died, 0% = like control plants", "result": "100% and 90%"}, {"measurement": "Pre-emergence action against AMARE in %", "setting": "AMARE [2]; 1280 g/ha", "result": 100, "unit": "%"}, {"measurement": "Pre-emergence action against MATIN in %", "setting": "MATIN [3]", "result": 100, "unit": "%"}, {"measurement": "Pre-emergence action at 1280 g/ha against AVEFA in %", "setting": "AVEFA [4]", "result": 80, "unit": "%"}, {"measurement": "Pre-emergence action against PHBPU in %", "setting": "PHBPU [5]", "result": 90, "unit": "%"}, {"measurement": "Pre-emergence action against POLCO in %", "setting": "POLCO [6]", "result": 90, "unit": "%"}, {"measurement": "Pre-emergence action against STEME in %", "setting": "STEME [7]; 320 g/ha", "result": 80, "unit": "%"}, {"measurement": "Pre-emergence action against STEME in %", "setting": "STEME [7]; 1280 g/ha", "result": 100, "unit": "%"}, {"measurement": "Pre-emergence action against VIOTR in %", "setting": "VIOTR", "result": 100, "unit": "%"}, {"measurement": "Pre-emergence action against VERPE in %", "setting": "VERPE [8]", "result": 90, "unit": "%"}, {"measurement": "Post-emergence action against ALOMY in %", "setting": "ALOMY [9]", "result": 90, "unit": "%"}, {"measurement": "Post-emergence action against AVEFA in %", "setting": "AVEFA [10]", "result": 90, "unit": "%"}, {"measurement": "Post-emergence action against LOLRI in %", "setting": "LOLRI", "result": 80, "unit": "%"}, {"measurement": "Post-emergence action against AMARE in %", "setting": "AMARE [11]; 320 g/ha", "result": 80, "unit": "%"}, {"measurement": "Post-emergence action against AMARE in %", "setting": "AMARE [11]; 1280 g/ha", "result": 80, "unit": "%"}, {"measurement": "Post-emergence action against MATIN in %", "setting": "MATIN [12]; 320 g/ha", "result": 80, "unit": "%"}, {"measurement": "Post-emergence action against MATIN in %", "setting": "MATIN [12]; 1280 g/ha", "result": 90, "unit": "%"}, {"measurement": "Post-emergence action against PHBPU in %", "setting": "PHBPU [13]", "result": 90, "unit": "%"}, {"measurement": "Post-emergence action against POLCO in %", "setting": "POLCO [14]", "result": 80, "unit": "%"}, {"measurement": "Post-emergence action against STEME in %", "setting": "STEME [15]; 320 g/ha", "result": 80, "unit": "%"}, {"measurement": "Post-emergence action against STEME in %", "setting": "STEME [15]; 1280 g/ha", "result": 90, "unit": "%"}, {"measurement": "Post-emergence action against VERPE in %", "setting": "VERPE [16]", "result": 80, "unit": "%"}, {"measurement": "Post-emergence action against HORMU in %", "setting": "HORMU", "result": 80, "unit": "%"}, {"measurement": "herbicidal efficacy against harmful plants in the case of pre-emergence treatment", "setting": "harmful plants", "result": "good herbicidal efficacy"}]}]}
